The nature of test [1]: Antifungal broth microdilution MIC assay. As to conditions: read-out: minimum inhibitory concentrations.
A further test relates to Clostridium difficile. As to the kind of experiment: Broth microdilution MIC against C. difficile strains. As to conditions: Clostridioides difficile, BAA1870, 48 h, read-out: minimum inhibitory concentrations (MIC).

In brackets after ≈: the same amount, converted by molar mass.

As for `Cc1ccc(S(=O)(=O)N2CCC3=C2C(c2cccc(Br)c2)OC3=O)cc1` (stereo not drawn) [Example 8, 6-(3-bromophenyl)-1-tosyl-1,2,3,6-tetrahydro-4H-furo[3,4-b]pyrrol-4-one], the MIC (in test [1]; in the test on Clostridium difficile) was 64 to 128 µM (≈ 27.8 to 55.6 µg/mL) each time.

Take `Cc1ccc(S(=O)(=O)N2CCC3=C2COC3=O)cc1` [Example 11, 1-tosyl-1,2,3,6-tetrahydro-4H-furo[3,4-b]pyrrol-4-one]: in test [1], the MIC lay in the range of 64 to 128 µM (≈ 17.9 to 35.8 µg/mL).

On to `Cc1ccc(S(=O)(=O)N2CCC3=C2C2(COC2)OC3=O)cc1` [Example 19, 1-tosyl-2,3-dihydrospiro[furo[3,4-b]pyrrole-6,3′-oxetan]-4(1H)-one], for which the MIC (in test [1]; in the test with Clostridium difficile) was 64 to 128 µM (≈ 20.6 to 41.1 µg/mL) throughout.

On to `CCCC1OC(=O)/C1=C1\CCCN1S(=O)(=O)c1ccc(C)cc1` (stereo not drawn) [Example 22, (E)-4-propyl-3-(1-tosylpyrrolidin-2-ylidene)oxetan-2-one], for which, in test [1], the MIC is 64 to 128 µM (≈ 21.5 to 42.9 µg/mL).
